# Active and inactive are the calls of the source. The rule behind the calls is not given here.
# Tests used:
# [1] = Toxicity in 2.5 months old SAMP-6 rapid aging mouse model assessed as change in ALP level administered at 30 mg/kg/day, IG continuously for 3 months; type: organism-based; conditions: in vivo, po, 2190 h
# [2] = Toxicity in 2.5 months old SAMP-6 rapid aging mouse model assessed as morphological change in liver administered at 30 mg/kg/day, IG continuously for 3 months by hematoxylin and eosin staining analysis; type: organism-based; conditions: in vivo, po, 2190 h
# [3] = test system: Mus musculus; assay: Anti osteoporosis in 16 months old C57 mouse assessed as GrP level in femur administered at 30 mg/kg/day, IG continuously for 4 months by scRNA-seq analysis (reference value: 12.75%); type: functional; conditions: 2920 h
# [4] = test system: Osteoblast; assay: Regulation of osteogenesis in 16 months old C57 mouse osteoblast endoplasmic reticulum assessed as increase in Hspa1b gene by scRNA-seq analysis; type: functional, cell-based
# [5] = test system: Osteoblast; assay: Regulation of osteogenesis in 16 months old C57 mouse osteoblast endoplasmic reticulum assessed as increase in Atf4 gene by scRNA-seq analysis; type: functional, cell-based
# [6] = test system: Mus musculus; assay: Anti osteoporosis in 16 months old C57 mouse assessed as monocyte level in femur administered at 30 mg/kg/day, IG continuously for 4 months by scRNA-seq analysis (reference value: 12.2%); type: functional; conditions: 2920 h
# [7] = test system: Mus musculus; assay: Anti osteoporosis in 2.5 months old SAMP-6 rapid aging mouse model assessed as increase in number of osteoblast per square millimeter of the trabecular bone surface administered at 30 mg/kg/day, IG continuously for 3 months […]; type: functional, organism-based
# [8] = test system: Mus musculus; assay: Anti osteoporosis in 16 months old C57 mouse assessed as increase in bone mass in femur from proximal end to the distal end administered at 30 mg/kg/day, IG continuously for 2 to 4 months by micro CT analysis relative to aged control group; type: functional, organism-based; conditions: time 2-4 months
# [9] = test system: Osteoblast; assay: Upregulation of transcription factor HMGA1 expression in 16 months old C57 mouse osteoblast by scRNA-seq analysis; type: functional, cell-based
# [10] = test system: Mus musculus; assay: Anti osteoporosis in 16 months old C57 mouse assessed as increase in bone mass administered at 30 mg/kg/day, IG continuously for 4 months by micro CT analysis relative to aged control group; type: functional, organism-based
# [11] = Acute toxicity in wildtype 3 days post-fertilization AB zebrafish at more than 10 uM; design: species or system Danio rerio; conditions: in vivo, 72 h
# [12] = Toxicity in 2.5 months old SAMP-6 rapid aging mouse model assessed as change in triglyceride level administered at 30 mg/kg/day, IG continuously for 3 months; type: organism-based; conditions: in vivo, po, 2190 h
# [13] = Toxicity in 2.5 months old SAMP-6 rapid aging mouse model assessed as change in urea level administered at 30 mg/kg/day, IG continuously for 3 months; type: organism-based; conditions: in vivo, po, 2190 h
# [14] = test system: Mus musculus; assay: Anti osteoporosis in 16 months old C57 mouse assessed as macrophage level in femur administered at 30 mg/kg/day, IG continuously for 4 months by scRNA-seq analysis (reference value: 1.88%); type: functional; conditions: 2920 h
# [15] = test system: Osteoblast; assay: Regulation of osteogenesis in 16 months old C57 mouse osteoblast endoplasmic reticulum assessed as increase in Hsp90aa1 gene by scRNA-seq analysis; type: functional, cell-based
# [16] = test system: Osteoblast; assay: Upregulation of transcription factor MYC expression in 16 months old C57 mouse osteoblast by scRNA-seq analysis; type: functional, cell-based
# [17] = test system: Mus musculus; assay: Anti osteoporosis in 16 months old C57 mouse assessed as osteoclast level in femur administered at 30 mg/kg/day, IG continuously for 4 months by scRNA-seq analysis (reference value: 6.52%); type: functional; conditions: 2920 h
# [18] = test system: Osteoblast; assay: Regulation of osteogenesis in 16 months old C57 mouse osteoblast endoplasmic reticulum assessed as increase in Dnaja1 gene by scRNA-seq analysis; type: functional, cell-based
# [19] = Toxicity in 16 months old C57 mouse assessed as change in triglyceride level administered at 30 mg/kg/day, IG continuously for 4 months; type: organism-based; conditions: in vivo, po, 2920 h
# [20] = test system: Mus musculus; assay: Anti osteoporosis in 16 months old C57 mouse assessed as fold increase in osteoclast level in femur administered at 30 mg/kg/day, IG continuously for 4 months by scRNA-seq analysis relative to control; type: functional; conditions: 2920 h
# [21] = Toxicity in 2.5 months old SAMP-6 rapid aging mouse model assessed as change in body weight administered at 30 mg/kg/day, IG in presence of ALN continuously for 3 months; type: organism-based; conditions: in vivo, po, 2190 h
# [22] = Toxicity in 2.5 months old SAMP-6 rapid aging mouse model assessed as change in creatinine level administered at 30 mg/kg/day, IG continuously for 3 months in presence of ALN; type: organism-based; conditions: in vivo, po, 2190 h
# [23] = test system: Mus musculus; assay: Anti osteoporosis in 16 months old C57 mouse assessed as increase in bone mass administered at 30 mg/kg/day, IG continuously for 2 months by micro CT analysis relative to aged control group; type: functional, organism-based
# [24] = Toxicity in 16 months old C57 mouse assessed as change in creatinine level administered at 30 mg/kg/day, IG continuously for 4 months; type: organism-based; conditions: in vivo, po, 2920 h
# [25] = test system: Osteoblast; assay: Upregulation of transcription factor TAX1BP1 expression in 16 months old C57 mouse osteoblast by scRNA-seq analysis; type: functional, cell-based
# [26] = test system: Osteoblast; assay: Upregulation of transcription factor JUND expression in 16 months old C57 mouse osteoblast by scRNA-seq analysis; type: functional, cell-based
# [27] = test system: Osteoblast; assay: Upregulation of transcription factor H1F0 expression in 16 months old C57 mouse osteoblast by scRNA-seq analysis; type: functional, cell-based
# [28] = Toxicity in 2.5 months old SAMP-6 rapid aging mouse model assessed as change in serum ALT level administered at 30 mg/kg/day, IG continuously for 3 months in presence of ALN; type: organism-based; conditions: in vivo, po, 2190 h
# [29] = test system: Osteoblast; assay: Upregulation of transcription factor MKRN1 expression in 16 months old C57 mouse osteoblast by scRNA-seq analysis; type: functional, cell-based
# [30] = test system: Mus musculus; assay: Anti osteoporosis in 16 months old C57 mouse assessed as reconstruction of bone microstructure administered at 30 mg/kg/day, IG continuously for 4 months by micro CT analysis relative to young control group; type: functional, organism-based
# [31] = Toxicity in 2.5 months old SAMP-6 rapid aging mouse model assessed as morphological change in kidney administered at 30 mg/kg/day, IG continuously for 3 months by hematoxylin and eosin staining analysis; type: organism-based; conditions: in vivo, po, 2190 h
# [32] = Toxicity in 2.5 months old SAMP-6 rapid aging mouse model assessed as morphological change in kidney administered at 30 mg/kg/day, IG continuously for 3 months in presence of ALN by hematoxylin and eosin staining analysis; type: organism-based; conditions: in vivo, po, 2190 h
# [33] = test system: Mus musculus; assay: Anti osteoporosis in 16 months old C57 mouse assessed as osteoblast level in femur administered at 30 mg/kg/day, IG continuously for 4 months by scRNA-seq analysis (reference value: 5.05%); type: functional; conditions: 2920 h
# [34] = test system: Mus musculus; assay: Anti osteoporosis in 16 months old C57 mouse assessed as T cell level in femur administered at 30 mg/kg/day, IG continuously for 4 months by scRNA-seq analysis (reference value: 10.54%); type: functional; conditions: 2920 h
# [35] = species on record: Danio rerio; assay: Anti osteoporosis activity in prednisone induced wildtype 3 days post-fertilization AB zebrafish osteoporosis model assessed as increase in bone fluorescence intensity (RVB = 13620 +/- 1692); type: functional
# [36] = test system: Mus musculus; assay: Anti osteoporosis in 16 months old C57 mouse assessed as myeloid progenitor level in femur administered at 30 mg/kg/day, IG continuously for 4 months by scRNA-seq analysis (reference value: 2.18%); type: functional; conditions: 2920 h
# [37] = test system: Mus musculus; assay: Anti osteoporosis in 2.5 months old SAMP-6 rapid aging mouse model assessed as bone mass maintenance administered at 30 mg/kg/day, IG continuously for 3 months; type: functional, organism-based
smiles,measurement,setting,value
COc1ccc2cc(C(=O)NCCN(C)C)oc2c1.CS(=O)(=O)O,Activity,[1],Non-Toxic
same,Activity,[2],Non-Toxic
same,Activity,[3],6.51%
same,Activity,[4],Active
same,Activity,[5],Active
same,Activity,[6],4.94%
same,Activity,[7],Active
same,Activity,[8],Active
same,Activity,[9],Active
same,Activity,[10],Active
same,Activity,[11],Toxic
same,Activity,[12],Non-Toxic
same,Activity,[13],Non-Toxic
same,Activity,[14],1.33%
same,Activity,[15],Active
same,Activity,[16],Active
same,Activity,[17],12.12%
same,Activity,[18],Active
same,Activity,[19],Non-Toxic
same,fold change (FC),[20],3
same,Activity,[21],Non-Toxic
same,Activity,[22],Non-Toxic
same,Activity,[23],inactive
same,Activity,[24],Non-Toxic
same,Activity,[25],Active
same,Activity,[26],Active
same,Activity,[27],Active
same,Activity,[28],Non-Toxic
same,Activity,[29],Active
same,Activity,[30],Active
same,Activity,[31],Non-Toxic
same,Activity,[32],Non-Toxic
same,Activity,[33],15.03%
same,Activity,[34],8.96%
same,Flu intensity,[35],19181
same,Activity,[36],0.32%
same,Activity,[37],Active
